Results published in US20160214918A1, “COMPOSITION FOR TREATING METABOLIC SYNDROME AND A PREPARATION METHOD THEREOF” (Kaohsiung Medical University, priority 2015, published 2016).

Columns and labels:
fat cells = test: cellular toxicity in fat cells; type: cell-based; conditions: FIG. 6A, drug 30 ug/mL
mature fat cells = test: glucose consumption rate of fat cells in culture medium; type: cell-based; conditions: 24 hours, control group about 20%
Source text: Please refer to FIGS. 6A-6C. FIGS. 6A-6C show the results of the activity of the glucose consumption rate of fat cells in the culture medium. As shown in FIGS. 6A-6C, various compounds containing halogens, such as chlorine, bromine and iodine, can increase the glucose consumption rate of fat cells. Many of the deuterium-containing compounds are new ones in this example. […] Symbol ‘Con’ denotes the Control Group, Symbol ‘5’ denotes a 2Br2H compound, Symbol ‘6’ denotes a 2I2H compound, Symbol ‘Met’ denotes a metformin, Symbol ‘AI’ denotes an AMPK inhibitor, Symbol ‘L’ denotes a low-dose usage of 15 ug/mL, and Symbol ‘H’ denotes a high-dose usage of 30 ug/mL
The activity of the glucose consumption rate of fat cells is taken from the following: A testing drug, 2,3-dideutero-1-(2-iodophenyl)-3-(4-methoxyphenyl)propan-1-one with the concentration 30 ug/mL, was cultured with mature fat cells for 24 hours. It was then tested to determine the change of the glucose concentration in the culture medium.
24 hours after the replacement of a culture media, the glucose consumption rate of the control group was about 20%. After insulin was added, the glucose consumption rate of the cells in the control group upgrades to 30%. With the commercial drug, Pioglitazone of 30 ug/mL, the glucose consumption rate of the cells in the corresponding group increased to 40%.

Compound	cellular toxicity (fat cells)	further results
[2H]C(C(=O)c1ccccc1I)C([2H])c1ccc(OC)cc1 (centres unmarked) [2I1D, 2,3-dideutero-1-(2-iodophenyl)-3-(4-methoxyphenyl)propan-1-one]	no visible cellular toxicity	
COc1ccc(/C=C/C(=O)c2ccccc2I)cc1 [2I2H, (E)-1-(2-iodophenyl)-3-(4-methoxyphenyl)prop-2-en-1-one]	no visible cellular toxicity	
COc1ccc(C#CC(=O)c2ccccc2I)cc1 [2I3, 1-(2-iodophenyl)-3-(4-methoxyphenyl)prop-2-yn-1-one]	significant cellular toxicity	
CCc1ccc(CCOc2ccc(CC3SC(=O)NC3=O)cc2)nc1 (centres unmarked) [Pioglitazone, reference compound]		glucose consumption rate of the cells (mature fat cells; mature fat cells, drug 30 ug/mL): 40%
insulin: insulin added to fat cells as a positive control		glucose consumption rate of the cells (mature fat cells; fat cells, after insulin was added): 30%
